We go through eight molecules from paper PMC2765529 (Journal of medicinal chemistry, 2009).

The target in one series is T1, human VAChT (Homo sapiens, UniProt Q16572).
T1 sequence (Q16572 1-532): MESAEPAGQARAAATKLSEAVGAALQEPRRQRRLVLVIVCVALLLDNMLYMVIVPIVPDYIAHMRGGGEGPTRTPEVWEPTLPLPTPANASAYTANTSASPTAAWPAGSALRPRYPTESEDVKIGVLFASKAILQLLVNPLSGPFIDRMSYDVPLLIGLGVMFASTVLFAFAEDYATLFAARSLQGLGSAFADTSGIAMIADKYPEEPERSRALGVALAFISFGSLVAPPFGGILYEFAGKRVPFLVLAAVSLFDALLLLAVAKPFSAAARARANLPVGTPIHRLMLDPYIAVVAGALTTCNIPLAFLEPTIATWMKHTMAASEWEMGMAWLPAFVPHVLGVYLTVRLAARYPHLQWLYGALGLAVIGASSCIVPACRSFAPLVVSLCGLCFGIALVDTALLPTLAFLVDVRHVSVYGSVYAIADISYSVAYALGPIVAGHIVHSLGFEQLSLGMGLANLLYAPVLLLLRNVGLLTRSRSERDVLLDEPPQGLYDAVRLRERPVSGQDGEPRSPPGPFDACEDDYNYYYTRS
Nature of the series: VAChT binding, competition against [^3H]vesamicol. The settings on record: for Ki: VAChT (Ki [nM]), [^3H]vesamicol competition, mean ± SEM.

Series [1] in a line: Tissue biodistribution and regional brain uptake in rats. Type of series: in vivo, male Sprague-Dawley rats. The note with it: for Blood uptake: i.v., mean ± SD.

Counter-ions that a name gives are not always drawn.

At human VAChT, `O=C(c1ccccc1)C1CCN([C@@H]2Cc3ccccc3C[C@H]2O)CC1` (racemic) [Compound 9a, (±)-trans-2-Hydroxy-3-(4-benzoylpiperidino)tetralin hydrochloride] came in with a concentration for half-maximal inhibition (IC50) of 4.3 ± 1 nM.

Regarding `O=C(c1ccc(Br)cc1)C1CCN([C@@H]2Cc3ccccc3C[C@H]2O)CC1` (racemic) [Compound 9b, (±)-trans-2-Hydroxy-3-(4-(4-bromobenzoyl)piperidino)tetralin hydrochloride], on human VAChT, the IC50 was 0.25 ± 0.02 nM.

At human VAChT, `Nc1ccc(C(=O)C2CCN([C@@H]3Cc4ccccc4C[C@H]3O)CC2)cc1` (racemic) [Compound 9c, (±)-trans-2-Hydroxy-3-(4-(4-aminobenzoyl)piperidino)tetralin] yielded a half-inhibitory concentration (IC50) of 1.68 ± 0.04 nM.

As to `O=C(c1ccc(F)cc1)C1CCN([C@@H]2Cc3ccccc3C[C@H]2O)CC1` (single isomer, unassigned) [(+)-9e], at human VAChT, affinity was put at a Ki of 108 ± 15 nM.

Regarding “(+)-trans-2-Hydroxy-3-(4-(4-[^18F]fluorobenzoyl)piperidino)tetralin [(+)-[^18F]9e]”, in series [1] (5 min p.i.), the Bone uptake amounted to 0.187 ± 0.015 %ID/g, the Brain uptake is on record as 0.350 ± 0.040 %ID/g, the Fat uptake stood at 0.052 ± 0.017 %ID/g and the Heart uptake worked out at 0.194 ± 0.006 %ID/g. In series [1] (5 min p.i.), this molecule had a Kidney uptake of 0.791 ± 0.123 %ID/g, a Liver uptake of 1.849 ± 0.566 %ID/g, a Lung uptake of 0.904 ± 0.161 %ID/g and a Muscle uptake of 0.047 ± 0.010 %ID/g. Besides, in series [1] (5 min p.i.), the “Ratio Striatum: Cerebellum” value is 1.15 ± 0.04, the “Ratio Striatum: Cortex” value was found to be 0.92 ± 0.02, the “Ratio Striatum: Hippocampus” value was determined as 0.99 ± 0.04 and the “Ratio Striatum: Total Brain” value is 1.02 ± 0.03. For the same molecule, the Blood uptake in series [1] (5 min p.i., n=4 rats) was 0.136 ± 0.020 %ID/g. Besides, the “Ratio Striatum: Blood” value in series [1] (5 min p.i., %ID/g striatum divided by %ID/g non-striatal tissue, n=4 rats) was 2.67 ± 0.57. Further, in series [1] (30 min p.i.), the Bone uptake is 0.277 ± 0.080 %ID/g, the Brain uptake worked out at 0.071 ± 0.012 %ID/g, the Fat uptake came to 0.108 ± 0.053 %ID/g and the Heart uptake was 0.094 ± 0.013 %ID/g. Besides, in series [1] (30 min p.i.), the Kidney uptake stood at 0.416 ± 0.048 %ID/g, the Liver uptake was found to be 1.239 ± 0.271 %ID/g, the Lung uptake is listed as 0.332 ± 0.073 %ID/g and the Muscle uptake stood at 0.051 ± 0.010 %ID/g. Also, in series [1] (30 min p.i.), the “Ratio Striatum: Blood” value worked out at 0.95 ± 0.18, the “Ratio Striatum: Cerebellum” value amounted to 1.3 ± 0.07, the “Ratio Striatum: Cortex” value is 1.08 ± 0.09 and the “Ratio Striatum: Hippocampus” value is on record as 0.93 ± 0.03. Moreover, the “Ratio Striatum: Total Brain” value in series [1] (30 min p.i.) is recorded as 1.13 ± 0.04. The molecule further showed a Blood uptake in series [1] (30 min p.i., n=4 rats) of 0.087 ± 0.016 %ID/g. Further, in series [1] (1 h p.i.), the Bone uptake is 0.399 ± 0.078 %ID/g, the Brain uptake is reported as 0.041 ± 0.002 %ID/g, the Fat uptake is 0.154 ± 0.065 %ID/g and the Heart uptake amounted to 0.051 ± 0.005 %ID/g. Further, in series [1] (1 h p.i.), the Kidney uptake stood at 0.291 ± 0.032 %ID/g, the Liver uptake was 0.814 ± 0.120 %ID/g, the Lung uptake is 0.188 ± 0.035 %ID/g and the Muscle uptake was 0.034 ± 0.008 %ID/g. Besides, in series [1] (1 h p.i.), the “Ratio Striatum: Blood” value was 0.9 ± 0.23, the “Ratio Striatum: Cerebellum” value is on record as 1.17 ± 0.12, the “Ratio Striatum: Cortex” value was 0.95 ± 0.09 and the “Ratio Striatum: Hippocampus” value is 0.98 ± 0.14. Moreover, the “Ratio Striatum: Total Brain” value in series [1] (1 h p.i.) turned out to be 1.02 ± 0.09. The Blood uptake in series [1] (1 h p.i., n=4 rats) was found to be 0.048 ± 0.007 %ID/g. For the same molecule, in series [1] (2 h p.i.), the Bone uptake is reported as 0.532 ± 0.096 %ID/g, the Brain uptake was 0.022 ± 0.004 %ID/g, the Fat uptake was 0.150 ± 0.062 %ID/g and the Heart uptake is given as 0.031 ± 0.006 %ID/g. Further, in series [1] (2 h p.i.), the Kidney uptake amounted to 0.194 ± 0.027 %ID/g, the Liver uptake came to 0.692 ± 0.081 %ID/g, the Lung uptake is on record as 0.112 ± 0.023 %ID/g and the Muscle uptake was 0.022 ± 0.005 %ID/g. In series [1] (2 h p.i.), the “Ratio Striatum: Blood” value came to 0.87 ± 0.11, the “Ratio Striatum: Cerebellum” value is listed as 1.14 ± 0.09, the “Ratio Striatum: Cortex” value turned out to be 0.91 ± 0.15 and the “Ratio Striatum: Hippocampus” value was determined as 0.99 ± 0.08. In addition, the “Ratio Striatum: Total Brain” value in series [1] (2 h p.i.) was found to be 1.04 ± 0.06. For the same molecule, in series [1] (2 h p.i., n=4 rats), the Blood uptake is 0.027 ± 0.002 %ID/g.

For the molecule `O=C(c1ccc([18F])cc1)C1CCN([C@@H]2Cc3ccccc3C[C@H]2O)CC1` (racemic) [(±)-[^18F]9e, (±)-trans-2-Hydroxy-3-(4-(4-[^18F]fluorobenzoyl)piperidino)tetralin], in series [1] (5 min p.i.), the Bone uptake was 0.307 ± 0.011 %ID/g, the Brain uptake was determined as 0.606 ± 0.100 %ID/g, the Fat uptake worked out at 0.088 ± 0.026 %ID/g and the Heart uptake came to 0.328 ± 0.014 %ID/g. In series [1] (5 min p.i.), the Liver uptake is given as 1.939 ± 0.382 %ID/g and the Muscle uptake worked out at 0.079 ± 0.015 %ID/g. The same molecule gave a Blood uptake in series [1] (5 min p.i., n=4 rats) of 0.122 ± 0.023 %ID/g. The same molecule registered a Bone uptake in series [1] (5 min p.i., listed as racemic [^18F]9e) of 0.31 %ID/g. In series [1] (30 min p.i.), the Bone uptake is recorded as 0.445 ± 0.032 %ID/g, the Brain uptake worked out at 0.153 ± 0.044 %ID/g, the Fat uptake is 0.177 ± 0.039 %ID/g and the Heart uptake was 0.141 ± 0.005 %ID/g. For the same molecule, in series [1] (30 min p.i.), the Liver uptake was found to be 1.504 ± 0.271 %ID/g, the Lung uptake amounted to 0.553 ± 0.056 %ID/g and the Muscle uptake turned out to be 0.071 ± 0.006 %ID/g. Further, the Blood uptake in series [1] (30 min p.i., n=4 rats) amounted to 0.071 ± 0.009 %ID/g. Also, in series [1] (1 h p.i.), the Bone uptake was 0.623 ± 0.080 %ID/g, the Brain uptake amounted to 0.095 ± 0.012 %ID/g, the Fat uptake came out at 0.196 ± 0.035 %ID/g and the Heart uptake was 0.094 ± 0.008 %ID/g. In addition, in series [1] (1 h p.i.), the Lung uptake is given as 0.346 ± 0.045 %ID/g and the Muscle uptake is 0.076 ± 0.012 %ID/g. Besides, the Blood uptake in series [1] (1 h p.i., n=4 rats) is recorded as 0.043 ± 0.003 %ID/g. In series [1] (2 h p.i.), the Bone uptake was 0.739 ± 0.044 %ID/g, the Brain uptake is on record as 0.059 ± 0.008 %ID/g, the Fat uptake is 0.173 ± 0.042 %ID/g and the Heart uptake came out at 0.056 ± 0.007 %ID/g. In series [1] (2 h p.i.), the Kidney uptake was found to be 0.853 ± 0.171 %ID/g, the Liver uptake is recorded as 1.188 ± 0.158 %ID/g, the Lung uptake is 0.223 ± 0.014 %ID/g and the Muscle uptake stood at 0.047 ± 0.006 %ID/g. The molecule also gave a Blood uptake in series [1] (2 h p.i., n=4 rats) of 0.027 ± 0.004 %ID/g.

As to `O=C(c1ccc([N+](=O)[O-])cc1)C1CCN([C@@H]2Cc3ccccc3C[C@H]2O)CC1` (racemic) [Compound 9d, (±)-trans-2-Hydroxy-3-(4-(4-nitrobenzoyl)piperidino)tetralin], the IC50 on human VAChT worked out at 0.48 ± 0.03 nM.

At human VAChT, `O=C(c1ccc(F)cc1)C1CCN([C@@H]2Cc3ccccc3C[C@H]2O)CC1` (relative stereo) [(±)9e, (±)-trans-2-Hydroxy-3-(4-(4-fluorobenzoyl)piperidino)tetralin] yielded an IC50 of 2.7 ± 0.4 nM and an inhibitory constant (Ki) of 2.7 ± 0.4 nM.

What is called IC50 is the concentration that inhibits the measured activity by half. High values mean lower potency, low ones higher potency. Broadly, the Ki is the dissociation constant of the complex between target and ligand, obtained from inhibition or displacement. Low readings indicate tighter binding, high ones weaker binding.
